The source of these data is US12673961B2 (Agios Pharmaceuticals, Inc., priority 2022, dated 2026).

By AC50 is commonly meant the midpoint of the concentration-response curve, whichever way the signal moves.

Some results are limits rather than exact numbers.

The target of the first assay is T1, human PAH with the R408W mutation (Homo sapiens, UniProt P00439, R408W).
T1 construct: expressed in transfected cells
T1 sequence (P00439 1-452 R408W): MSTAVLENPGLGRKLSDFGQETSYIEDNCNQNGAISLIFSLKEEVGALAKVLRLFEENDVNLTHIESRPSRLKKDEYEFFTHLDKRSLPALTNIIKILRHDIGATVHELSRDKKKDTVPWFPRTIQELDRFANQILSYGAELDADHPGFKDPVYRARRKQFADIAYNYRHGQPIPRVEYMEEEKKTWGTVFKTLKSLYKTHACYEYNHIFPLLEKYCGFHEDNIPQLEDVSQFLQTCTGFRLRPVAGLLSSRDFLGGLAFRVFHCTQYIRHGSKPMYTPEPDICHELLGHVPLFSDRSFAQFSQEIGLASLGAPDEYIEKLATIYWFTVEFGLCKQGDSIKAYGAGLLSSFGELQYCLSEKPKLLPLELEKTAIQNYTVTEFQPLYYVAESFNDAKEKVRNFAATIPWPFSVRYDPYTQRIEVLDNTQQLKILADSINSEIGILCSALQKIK
As to the kind of experiment: Cell Based Phenylalanine Flux Assay.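 Note: Ten-point dose curve from 2-fold serial dilutions, run in duplicate at 0.5% DMSO final, tracer step used 20 µM sepiapterin and 800 µM labeled phenylalanine.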 Also noted: scale not given here. To be noted: A375 cells expressing R408W PAH; 24 hrs with compound, then 20 μM sepiapterin and 800 μM 13C9,15N-Phenylalanine for 4 hours; 13C-Tyrosine in media by LC-MS; average where tested multiple times.
With `COc1cccn2nc(C3c4nc[nH]c4CCN3C(=O)c3ccnn3C)cc12` (centres unmarked), the AC50 result was “E, E”.

For `CC(C)(O)c1nc(C(F)(F)F)c(C(=O)N2CCc3[nH]cnc3C2c2cc3c(Cl)cccn3n2)o1` (centres unmarked), the AC50 result is on record as “E, E”.

The assay is the same for the next values; noted with them: A375 cells expressing R408W PAH; 24 hrs with compound, then 20 μM sepiapterin and 800 μM 13C9,15N-Phenylalanine for 4 hours; 13C-Tyrosine in media by LC-MS; average where tested multiple times; read-out: AC50.
For the molecule `Nc1cnc(N2CCc3[nH]cnc3[C@H]2c2cc3ccccn3n2)nc1` (single isomer, unassigned), the AC50 is more than 5000 nM.

In the case of `COc1cccn2nc([C@@H]3c4nc[nH]c4CCN3c3nnc(-c4ccccn4)o3)cc12` (single isomer, unassigned), the AC50 lay within 1000 to 5000 nM.

Turning to `COCc1ncc(C(=O)N2CCc3[nH]cnc3C2c2cc3ccccn3n2)o1` (centres unmarked), the AC50 lay in the range of 1000 to 5000 nM.

For the molecule `Cn1cc(N2CCc3[nH]cnc3C2c2cc3ccccn3n2)cn1` (centres unmarked), the AC50 is more than 5000 nM.

The assay is the same for the next values; noted with them: A375 cells expressing human R408W PAH; 24 hrs compound incubation; 13C-Tyrosine by LC-MS; average where tested multiple times; read-out: AC50.
Turning to `Cc1cccc2cc([C@@H]3c4nc[nH]c4CCN3C(=O)c3nnc(-c4ccn(C)n4)o3)nn12` [Example 802, (S)-(5-(1-methyl-1H-pyrazol-3-yl)-1,3,4-oxadiazol-2-yl)(4-(7-methylpyrazolo[1,5-a]pyridin-2-yl)-6,7-dihydro-1H-imidazo[4,5-c]pyridin-5(4H)-yl)methanone], the AC50 is less than 500 nM.

As for `O=C(c1nnc(-c2ccn(C(F)F)n2)o1)N1CCc2[nH]cnc2[C@H]1c1cc2c(Cl)cccn2n1` [Example 1118, (S)-(4-(4-chloropyrazolo [1,5-a]pyridin-2-yl)-6,7-dihydro-1H-imidazo[4,5-c]pyridin-5(4H)-yl)(5-(1-(difluoromethyl)-1H-pyrazol-3-yl)-1,3,4-oxadiazol-2-yl)methanone], the AC50 was less than 500 nM.

`Cc1cccc2cc([C@H]3c4nc[nH]c4CCN3C(=O)c3nnc(-c4cnn(C(F)F)c4)o3)nn12` [Example 915, (R)-(5-(1-(difluoromethyl)-1H-pyrazol-4-yl)-1,3,4-oxadiazol-2-yl)(4-(7-methylpyrazolo[1,5-a]pyridin-2-yl)-6,7-dihydro-1H-imidazo[4,5-c]pyridin-5(4H)-yl)methanone]: the AC50 is more than 5000 nM.

Staying with this assay, now noted: A375 cells expressing human R408W PAH; 24 hrs with compound, then sepiapterin and 13C9,15N-Phenylalanine for 4 hours; 13C-Tyrosine by LC-MS; average where tested multiple times; read-out: AC50.
On to `Clc1cccc2cc([C@@H]3c4nc[nH]c4CCN3c3nnc(-c4ccccn4)o3)nn12` [Example 1639, (S)-2-(4-(7-chloropyrazolo [1,5-a]pyridin-2-yl)-6,7-dihydro-1H-imidazo[4,5-c]pyridin-5(4H)-yl)-5-(pyridin-2-yl)-1,3,4-oxadiazole], for which the AC50 was in the range of 500 to 1000 nM.

In the case of `Cc1cccn2nc([C@@H]3c4nc[nH]c4CCN3C(=O)c3nnc(-c4ccccn4)s3)cc12` [Example 1970, (S)-(4-(4-methylpyrazolo [1,5-a]pyridin-2-yl)-1,4,6,7-tetrahydro-5H-imidazo[4,5-c]pyridin-5-yl)(5-(pyridin-2-yl)-1,3,4-thiadiazol-2-yl) methanone], the AC50 is less than 500 nM.

For `Cc1cccn2nc([C@H]3c4nc[nH]c4CCN3C(=O)c3nnc(-c4ccn(C(F)(F)F)n4)o3)cc12` [Example 1479, (R)-(4-(4-methylpyrazolo [1,5-a]pyridin-2-yl)-6,7-dihydro-1H-imidazo[4,5-c]pyridin-5(4H)-yl)(5-(1-(trifluoromethyl)-1H-pyrazol-3-yl)-1,3,4-oxadiazol-2-yl)methanone], the AC50 was in the range of 1000 to 5000 nM.

For the molecule `Cc1cccc2cc([C@H]3c4nc[nH]c4CCN3c3nnc(C(C)(F)F)o3)nn12` [Example 2328, (R)-2-(1,1-difluoroethyl)-5-(4-(7-methylpyrazolo[1,5-a]pyridin-2-yl)-1,4,6,7-tetrahydro-5H-imidazo[4,5-c]pyridin-5-yl)-1,3,4-oxadiazole], the AC50 is more than 5000 nM.

For `CC1(c2nnc(N3CCc4[nH]cnc4[C@@H]3c3cc4c(Cl)cccn4n3)o2)CC1` [Example 2258, (R)-2-(4-(4-chloropyrazolo [1,5-a]pyridin-2-yl)-1,4,6,7-tetrahydro-5H-imidazo [4,5-c]pyridin-5-yl)-5-(1-methylcyclopropyl)-1,3,4-oxadiazole], the AC50 was more than 5000 nM.

`Clc1cccn2nc([C@H]3c4nc[nH]c4CCN3c3nnc(-c4cnccn4)o3)cc12` [Example 2160, (R)-2-(4-(4-chloropyrazolo [1,5-a]pyridin-2-yl)-1,4,6,7-tetrahydro-5H-imidazo[4,5-c]pyridin-5-yl)-5-(pyrazin-2-yl)-1,3,4-oxadiazole]: the AC50 was more than 5000 nM.

In the case of `CC(C)c1nnc(C(=O)N2CCc3[nH]cnc3[C@H]2c2cc3c(Cl)cccn3n2)o1` [Example 1484, (S)-(4-(4-chloropyrazolo [1,5-a]pyridin-2-yl)-6,7-dihydro-1H-imidazo[4,5-c]pyridin-5(4H)-yl)(5-isopropyl-1,3,4-oxadiazol-2-yl)methanone], the AC50 was less than 500 nM.

As to `O=C(c1nnc(C2CCC2)o1)N1CCc2[nH]cnc2[C@H]1c1cc2c(C(F)F)cccn2n1` [Example 1520, (S)-(5-cyclobutyl-1,3,4-oxadiazol-2-yl)(4-(4-(difluoromethyl)pyrazolo [1,5-a]pyridin-2-yl)-6,7-dihydro-1H-imidazo[4,5-c]pyridin-5(4H)-yl)methanone], the AC50 is less than 500 nM.

For the molecule `Cc1cccn2nc([C@H]3c4nc[nH]c4CCN3C(=O)c3nnc(C4CC4)s3)cc12` [Example 1996, (R)-(5-cyclopropyl-1,3,4-thiadiazol-2-yl)(4-(4-methylpyrazolo[1,5-a]pyridin-2-yl)-1,4,6,7-tetrahydro-5H-imidazo[4,5-c]pyridin-5-yl)methanone], the AC50 was 1000 to 5000 nM.

In the case of `CC(C)(C)c1nnc(C(=O)N2CCc3[nH]cnc3[C@H]2c2cc3cccc(C(F)F)n3n2)o1` [Example 1419, (S)-(5-(tert-butyl)-1,3,4-oxadiazol-2-yl)(4-(7-(difluoromethyl)pyrazolo [1,5-a]pyridin-2-yl)-6,7-dihydro-1H-imidazo[4,5-c]pyridin-5(4H)-yl)methanone], the AC50 lay within 500 to 1000 nM.

Take `CC(C)(F)c1nnc(C(=O)N2CCc3[nH]cnc3[C@@H]2c2cc3cccc(C(F)F)n3n2)o1` [Example 1437, (R)-(4-(7-(difluoromethyl)pyrazolo[1,5-a]pyridin-2-yl)-6,7-dihydro-1H-imidazo[4,5-c]pyridin-5(4H)-yl)(5-(2-fluoropropan-2-yl)-1,3,4-oxadiazol-2-yl)methanone]: the AC50 fell in the range of 1000 to 5000 nM.

On to `Clc1cccn2nc([C@@H]3c4nc[nH]c4CCN3c3nnc(-c4cccnc4)o3)cc12` [Example 2262, (S)-2-(4-(4-chloropyrazolo [1,5-a]pyridin-2-yl)-1,4,6,7-tetrahydro-5H-imidazo[4,5-c]pyridin-5-yl)-5-(pyridin-3-yl)-1,3,4-oxadiazole], for which the AC50 lay in the range of 500 to 1000 nM.

As to `CC(C)c1cccn2nc([C@@H]3c4nc[nH]c4CCN3C(=O)c3nnc(-c4ccn(C(F)F)n4)o3)cc12` [Example 1983, (S)-(5-(1-(difluoromethyl)-1H-pyrazol-3-yl)-1,3,4-oxadiazol-2-yl)(4-(4-isopropylpyrazolo[1,5-a]pyridin-2-yl)-1,4,6,7-tetrahydro-5H-imidazo[4,5-c]pyridin-5-yl)methanone], the AC50 is less than 500 nM.

In the case of `FC(F)Oc1cccn2nc([C@@H]3c4nc[nH]c4CCN3c3nnc(C(F)(F)F)o3)cc12` [Example 2155, (S)-2-(4-(4-(difluoromethoxy)pyrazolo[1,5-a]pyridin-2-yl)-1,4,6,7-tetrahydro-5H-imidazo[4,5-c]pyridin-5-yl)-5-(trifluoromethyl)-1,3,4-oxadiazole], the AC50 was less than 500 nM.
